Laboratory results as given in US20100022491A1, “4-HYDROXY-2-OXO-2,3-DIHYDRO-1,3-BENZOTHIAZOL-7YL COMPOUNDS FOR MODULATION OF B2-ADRENORECEPTOR ACTIVITY” (ASTRAZENECA AB, priority 2006, published 2010).
Counter-ions that a name gives are not always drawn.

What follows are compounds tested against T1, recombinant human α1D receptor (Homo sapiens, UniProt P25100) (assay: Adrenergic α1D selectivity binding assay ([3H]-prazosin)). Conditions: inhibition of [3H]-prazosin (0.3 nM) binding, HEK293 membranes.
T1 construct: expressed in transfected cells; host or cells: HEK293
T1 sequence (P25100 1-572): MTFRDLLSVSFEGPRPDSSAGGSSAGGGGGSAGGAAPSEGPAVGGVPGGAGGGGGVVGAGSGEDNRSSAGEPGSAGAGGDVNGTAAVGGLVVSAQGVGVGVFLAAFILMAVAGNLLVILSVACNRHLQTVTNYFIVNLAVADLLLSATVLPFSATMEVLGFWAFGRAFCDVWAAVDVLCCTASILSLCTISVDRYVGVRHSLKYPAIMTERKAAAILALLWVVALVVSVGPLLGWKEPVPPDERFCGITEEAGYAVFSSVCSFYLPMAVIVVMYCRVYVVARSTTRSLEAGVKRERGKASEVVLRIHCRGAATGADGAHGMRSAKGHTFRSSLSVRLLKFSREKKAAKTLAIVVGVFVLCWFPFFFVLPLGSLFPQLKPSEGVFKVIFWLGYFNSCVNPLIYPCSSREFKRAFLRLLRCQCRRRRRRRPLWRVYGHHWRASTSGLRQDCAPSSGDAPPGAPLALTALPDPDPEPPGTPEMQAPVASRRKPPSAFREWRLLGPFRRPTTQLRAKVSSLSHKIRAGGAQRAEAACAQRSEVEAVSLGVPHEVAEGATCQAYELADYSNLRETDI
Method in brief: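 Displacement of [3H]-prazosin (0.3 nM) from recombinant human α1D receptor in HEK293-cell membranes, 2 h at room temperature, pH 7.4 HEPES/EDTA/gelatin buffer. Filtration and scintillation counting, non-specific binding set with 10 μM BMY7378; four-parameter logistic fit gives pIC50.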

SMILES	α1 bind pIC50
O=C(CCNCCc1ccccc1)N(CCNCCc1ccc(O)c2[nH]c(=O)sc12)C1CCCCCC1 [Example 23, N-Cycloheptyl-N-(2-{[2-(4-hydroxy-2-oxo-2,3-dihydro-1,3-benzothiazol-7-yl)ethyl]amino}ethyl)-N^3-(2-phenylethyl)-β-alaninamide bis-trifluoroacetic acid salt]	7.2
O=C(CCNCCc1cc(F)cc(F)c1)N(CCNCCc1ccc(O)c2[nH]c(=O)sc12)C1CCCCC1 [Example 92, N-Cyclohexyl-N^3-[2-(3,5-difluorophenyl)ethyl]-N-(2-{[2-(4-hydroxy-2-oxo-2,3-dihydro-1,3-benzothiazol-7-yl)ethyl]amino}ethyl)-β-alaninamide dihydrobromide salt]	6.6

Same assay, conditions: inhibition of [3H]-prazosin (0.3 nM) binding, HEK293 membranes; read-out: α1 bind pIC50 (converted)

IC50 [nM]	SMILES
126	O=C(CCNCCc1ccccc1)N(CCNCCc1ccc(O)c2[nH]c(=O)sc12)C1CCCC1 [Example 2, N-Cyclopentyl-N-(2-{[2-(4-hydroxy-2-oxo-2,3-dihydro-1,3-benzothiazol-7-yl)ethyl]amino}ethyl)-N^3-(2-phenylethyl)-β-alaninamide bis-trifluoroacetic acid salt]
63.1	O=C(CCNCCc1ccccc1)N(CCNCCc1ccc(O)c2[nH]c(=O)sc12)C1CCSCC1 [Example 62, N-(2-{[2-(4-Hydroxy-2-oxo-2,3-dihydro-1,3-benzothiazol-7-yl)ethyl]amino}ethyl)-N^3-(2-phenylethyl)-N^1-(tetrahydro-2H-thiopyran-4-yl)-β-alaninamide bis-trifluoroacetic acid salt]
501	O=C(CCNCCc1ccc(Cl)cc1)N(CCNCCc1ccc(O)c2[nH]c(=O)sc12)C1CCOCC1 [Example 26, N^3-[2-(4-Chlorophenyl)ethyl]-N-(2-{[2-(4-hydroxy-2-oxo-2,3-dihydro-1,3-benzothiazol-7-yl)ethyl]amino}ethyl)-N-(tetrahydro-2H-pyran-4-yl)-β-alaninamide bis-trifluoroacetic acid salt]
501	CC(C)(C)CN(CCNCCc1ccc(O)c2[nH]c(=O)sc12)C(=O)CCNCCc1ccc(Cl)cc1 [Example 8, N^3-[2-(4-Chlorophenyl)ethyl]-N-(2,2-dimethylpropyl)-N-(2-{[2-(4-hydroxy-2-oxo-2,3-dihydro-1,3-benzothiazol-7-yl)ethyl]amino}ethyl)-β-alaninamide bis-trifluoroacetic acid salt]
398	CC(C)(CNCCC(=O)N(CCNCCc1ccc(O)c2[nH]c(=O)sc12)C1CCCC1)c1ccccc1 [Example 32, N-cyclopentyl-N-(2-{[2-(4-hydroxy-2-oxo-2,3-dihydro-1,3-benzothiazol-7-yl)ethyl]amino}ethyl)-N^3-(2-methyl-2-phenylpropyl)-β-alaninamide bis-trifluoroacetic acid salt]
251	O=C(NCc1ccccc1)c1ccc(CCNCCC(=O)N(CCNCCc2ccc(O)c3[nH]c(=O)sc23)C2CCCCCC2)cc1 [Example 100, N-Benzyl-4-[2-({3-[cycloheptyl(2-{[2-(4-hydroxy-2-oxo-2,3-dihydro-1,3-benzothiazol-7-yl)ethyl]amino}ethyl)amino]-3-oxopropyl}amino)ethyl]benzamide bis-trifluoroacetic acid salt]
251	Cc1cccc(CCNCCC(=O)N(CCNCCc2ccc(O)c3[nH]c(=O)sc23)C2CCOCC2)c1 [Example 25, N-(2-{[2-(4-Hydroxy-2-oxo-2,3-dihydro-1,3-benzothiazol-7-yl)ethyl]amino}ethyl)-N^3-[2-(3-methylphenyl)ethyl]-N-(tetrahydro-2H-pyran-4-yl)-β-alaninamide bis-trifluoroacetic acid salt]
100	CC(CN(C(=O)CCNCCc1cccc(F)c1)C1CCCCCC1)NCCc1ccc(O)c2[nH]c(=O)sc12 (stereo not drawn) [Example 104, N-Cycloheptyl-N^3-[2-(3-fluorophenyl)ethyl]-N-(2-{[2-(4-hydroxy-2-oxo-2,3-dihydro-1,3-benzothiazol-7-yl)ethyl]amino}propyl)-β-alaninamide bis-trifluoroacetic acid salt]
251	O=C(CCNCCc1cc(F)cc(F)c1)N(CCNCCc1ccc(O)c2[nH]c(=O)sc12)C1CCCCCC1 [Example 58, N^1-Cycloheptyl-N^3-[2-(3,5-difluorophenyl)ethyl]-N^1-(2-{[2-(4-hydroxy-2-oxo-2,3-dihydro-1,3-benzothiazol-7-yl)ethyl]amino}ethyl)-β-alaninamide bis-trifluoroacetic acid salt]
501	C[C@H](CNCCC(=O)N(CCNCCc1ccc(O)c2[nH]c(=O)sc12)CC(C)(C)C)c1ccccc1 [Example 11, N-(2,2-Dimethylpropyl)-N-(2-{[2-(4-hydroxy-2-oxo-2,3-dihydro-1,3-benzothiazol-7-yl)ethyl]amino}ethyl)-N^3-[(2S)-2-phenylpropyl]-β-alaninamide bis-trifluoroacetic acid salt]
63.1	O=C(CCNCCc1cc(F)ccc1F)N(CCNCCc1ccc(O)c2[nH]c(=O)sc12)C1CCCCC1 [Example 79, N^1-Cyclohexyl-N^3-[2-(2,5-difluorophenyl)ethyl]-N^1-(2-{[2-(4-hydroxy-2-oxo-2,3-dihydro-1,3-benzothiazol-7-yl)ethyl]amino}ethyl)-β-alaninamide bis-trifluoroacetic acid salt]
251	O=C(CCNCCc1nc2ccccc2[nH]1)N(CCNCCc1ccc(O)c2[nH]c(=O)sc12)C1CCCCC1 [Example 77, N^3-[2-(1H-Benzimidazol-2-yl)ethyl]-N^1-cyclohexyl-N^1-(2-{[2-(4-hydroxy-2-oxo-2,3-dihydro-1,3-benzothiazol-7-yl)ethyl]amino}ethyl)-β-alaninamide tris-trifluoroacetic acid salt]
251	O=C(CCNCCc1cccc(F)c1F)N(CCNCCc1ccc(O)c2[nH]c(=O)sc12)C1CCCCCC1 [Example 56, N^1-Cycloheptyl-N^3-[2-(2,3-difluorophenyl)ethyl]-N^1-(2-{[2-(4-hydroxy-2-oxo-2,3-dihydro-1,3-benzothiazol-7-yl)ethyl]amino}ethyl)-β-alaninamide bis-trifluoroacetic acid salt]
100	O=C(CCNCCc1ccc(F)cc1)N(CCNCCc1ccc(O)c2[nH]c(=O)sc12)C1CCCCC1 [Example 16, N-Cyclohexyl-N^3-[2-(4-fluorophenyl)ethyl]-N-(2-{[2-(4-hydroxy-2-oxo-2,3-dihydro-1,3-benzothiazol-7-yl)ethyl]amino}ethyl)-β-alaninamide bis-trifluoroacetic acid salt]
158	O=C(CCNCCc1ccc2c(c1)OCO2)N(CCNCCc1ccc(O)c2[nH]c(=O)sc12)C1CCCCC1 [Example 76, N^3-[2-(1,3-Benzodioxol-5-yl)ethyl]-N^1-cyclohexyl-N^1-(2-{[2-(4-hydroxy-2-oxo-2,3-dihydro-1,3-benzothiazol-7-yl)ethyl]amino}ethyl)-β-alaninamide bis-trifluoroacetic acid salt]
316	O=C(CCNCCc1ccc(Cl)cc1)N(CCNCCc1ccc(O)c2[nH]c(=O)sc12)C1CCCCCC1 [Example 51, N^3-[2-(4-Chlorophenyl)ethyl]-N^1-cycloheptyl-N^1-(2-{[2-(4-hydroxy-2-oxo-2,3-dihydro-1,3-benzothiazol-7-yl)ethyl]amino}ethyl)-β-alaninamide bis-trifluoroacetic acid salt]
1000	CC(C)(C)CN(CCNCCc1ccc(O)c2[nH]c(=O)sc12)C(=O)CCNCCc1ccc(Cl)c(Cl)c1 [Example 9, N^3-[2-(3,4-Dichlorophenyl)ethyl]-N-(2,2-dimethylpropyl)-N-(2-{[2-(4-hydroxy-2-oxo-2,3-dihydro-1,3-benzothiazol-7-yl)ethyl]amino}ethyl)-β-alaninamide bis-trifluoroacetic acid salt]

SMILES	IC50 [nM]
O=C(CCNCCc1cc(F)cc(F)c1)N(CCNCCc1ccc(O)c2[nH]c(=O)sc12)C1CCCCC1 [Example 78, N^1-Cyclohexyl-N^3-[2-(3,5-difluorophenyl)ethyl]-N^1-(2-{[2-(4-hydroxy-2-oxo-2,3-dihydro-1,3-benzothiazol-7-yl)ethyl]amino}ethyl)-β-alaninamide bis-trifluoroacetic acid salt]	251
O=C(CCNCCc1cccc(F)c1)N(CCNCCc1ccc(O)c2[nH]c(=O)sc12)C1CCCCC1 [Example 96, N-Cyclohexyl-N^3-[2-(3-fluorophenyl)ethyl]-N-(2-{[2-(4-hydroxy-2-oxo-2,3-dihydro-1,3-benzothiazol-7-yl)ethyl]amino}ethyl)-β-alaninamide dihydrobromide salt]	200
CC(C)(C)CN(CCNCCc1ccc(O)c2[nH]c(=O)sc12)C(=O)CCNCCc1cccc(F)c1 [Example 44, N^1-(2,2-Dimethylpropyl)-N^3-[2-(3-fluorophenyl)ethyl]-N^1-(2-{[2-(4-hydroxy-2-oxo-2,3-dihydro-1,3-benzothiazol-7-yl)ethyl]amino}ethyl)-β-alaninamide bis-trifluoroacetic acid salt]	316
